From patent publication US20240360082A1, “SUBSTITUTED PYRIDONE COMPOUNDS USEFUL TO TREAT ORTH[…]” (priority 2021, published 2024)
pIC50: −log10 of the molar value. Like-named read-outs stand apart in the source and are kept apart here.

Biological target: influenza A virus minigenome (PB2, PB1, PA, NP proteins) (UniProt P04665)
Format: cell-based

Sequence of influenza A virus minigenome (PB2, PB1, PA, NP proteins) (P04665 whole entry): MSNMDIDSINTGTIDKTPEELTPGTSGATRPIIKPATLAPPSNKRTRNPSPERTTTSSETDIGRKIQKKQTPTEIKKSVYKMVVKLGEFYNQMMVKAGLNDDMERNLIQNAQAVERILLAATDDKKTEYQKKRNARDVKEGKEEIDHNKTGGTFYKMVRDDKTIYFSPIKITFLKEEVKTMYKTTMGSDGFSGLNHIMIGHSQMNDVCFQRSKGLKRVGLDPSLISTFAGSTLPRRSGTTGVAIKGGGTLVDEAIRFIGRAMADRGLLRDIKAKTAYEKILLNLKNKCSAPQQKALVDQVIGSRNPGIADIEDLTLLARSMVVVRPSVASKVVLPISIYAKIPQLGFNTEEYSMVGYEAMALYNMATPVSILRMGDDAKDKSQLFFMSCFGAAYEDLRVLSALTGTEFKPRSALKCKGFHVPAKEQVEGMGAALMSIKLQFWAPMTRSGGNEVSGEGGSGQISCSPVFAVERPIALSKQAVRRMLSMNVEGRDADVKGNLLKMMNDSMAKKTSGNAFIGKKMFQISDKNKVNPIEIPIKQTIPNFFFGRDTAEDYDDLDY

| SMILES | pIC50 (read-out: RNP_ Hubei B IC50) | pIC50 (read-out: RNP_Hubei B) |
| --- | --- | --- |
| NC(=O)c1cc(-c2ccc(OCC3COCC(C4CCCC4)O3)cc2)c(C(F)(F)F)[nH]c1=O (racemic) [Example 333, 5-(4-((6-cyclopentyl-1,4-dioxan-2-yl)methoxy)phenyl)-2-oxo-6-(trifluoromethyl)-1,2-dihydropyridine-3-carboxamide] | 5.30 to 6.00 |  |
| NC(=O)c1cc(-c2ccc(OCC3COC4(CC4)CO3)cc2)c(C(F)(F)F)[nH]c1=O (racemic) [Example 338, 5-(4-((4,7-dioxaspiro[2.5]octan-6-yl)methoxy)phenyl)-2-oxo-6-(trifluoromethyl)-1,2-dihydropyridine-3-carboxamide] | 4.60 to 5.00 |  |
| CC(Oc1ccc(-c2cc(C(N)=O)c(=O)[nH]c2C(F)(F)F)cc1)c1cccnc1 (single isomer, unassigned) [Example 80, (R or S)-2-oxo-5-(4-(1-(pyridin-3-yl)ethoxy)phenyl)-6-(trifluoromethyl)-1,2-dihydropyridine-3-carboxamide] |  | 4.60 to 5.00 |
| CC(Oc1ccc(-c2cc(C(N)=O)c(=O)[nH]c2C(F)(F)F)cc1)c1cccnc1 (single isomer, unassigned) [Example 81, (R or S)-2-oxo-5-(4-(1-(pyridin-3-yl)ethoxy)phenyl)-6-(trifluoromethyl)-1,2-dihydropyridine-3-carboxamide] |  | 4.60 to 5.00 |
| CC(Oc1ccc(-c2cc(C(N)=O)c(=O)[nH]c2C(F)(F)F)cc1)c1cncnc1 (single isomer, unassigned) [Example 95, (R or S)-2-oxo-5-(4-(1-(pyrimidin-5-yl)ethoxy)phenyl)-6-(trifluoromethyl)-1,2-dihydropyridine-3-carboxamide] |  | 4.30 to 4.60 |
| CC(Oc1ccc(-c2cc(C(N)=O)c(=O)[nH]c2C(F)(F)F)cc1)c1cncnc1 (single isomer, unassigned) [Example 96, (R or S)-2-oxo-5-(4-(1-(pyrimidin-5-yl)ethoxy)phenyl)-6-(trifluoromethyl)-1,2-dihydropyridine-3-carboxamide] |  | 4.30 to 4.60 |
| CC(Oc1ccc(-c2cc(C(N)=O)c(=O)[nH]c2C(F)(F)F)cc1)c1cccc(C#N)c1 (single isomer, unassigned) [Example 97, (R or S)-5-(4-(1-(3-cyanophenyl)ethoxy)phenyl)-2-oxo-6-(trifluoromethyl)-1,2-dihydropyridine-3-carboxamide] |  | 4.30 to 4.60 |
| CC(Oc1ccc(-c2cc(C(N)=O)c(=O)[nH]c2C(F)(F)F)cc1)c1cccc(C#N)c1 (single isomer, unassigned) [Example 98, (R or S)-5-(4-(1-(3-cyanophenyl)ethoxy)phenyl)-2-oxo-6-(trifluoromethyl)-1,2-dihydropyridine-3-carboxamide] |  | 5.30 to 6.00 |
| CC(Oc1ccc(-c2cc(C(N)=O)c(=O)[nH]c2C(F)(F)F)cc1)c1ccc2nonc2c1 (single isomer, unassigned) [Example 100, (R or S)-5-(4-(1-(benzo[c][1,2,5]oxadiazol-5-yl)ethoxy)phenyl)-2-oxo-6-(trifluoromethyl)-1,2-dihydropyridine-3-carboxamide] |  | 5.00 to 5.30 |
| COC1CCOC(COc2ccc(-c3cc(C(N)=O)c(=O)[nH]c3C(F)(F)F)cc2)C1 (single isomer, unassigned) [Example 202, 5-(4-((4-methoxytetrahydro-2H-pyran-2-yl)methoxy)phenyl)-2-oxo-6-(trifluoromethyl)-1,2-dihydropyridine-3-carboxamide] |  | 4.60 to 5.00 |
| COC1CCOC(COc2ccc(-c3cc(C(N)=O)c(=O)[nH]c3C(F)(F)F)cc2)C1 (single isomer, unassigned) [Example 203, 5-(4-((4-methoxytetrahydro-2H-pyran-2-yl)methoxy)phenyl)-2-oxo-6-(trifluoromethyl)-1,2-dihydropyridine-3-carboxamide] |  | 4.30 to 4.60 |
| NC(=O)c1cc(-c2ccc(OCC3COCCO3)cc2)c(C(F)(F)F)[nH]c1=O (single isomer, unassigned) [Example 237, 5-(4-((1,4-dioxan-2-yl)methoxy)phenyl)-2-oxo-6-(trifluoromethyl)-1,2-dihydropyridine-3-carboxamide] | 4.30 to 4.60 |  |
| NC(=O)c1cc(-c2ccc(OCC3COCCO3)cc2)c(C(F)(F)F)[nH]c1=O (single isomer, unassigned) [Example 238, 5-(4-((1,4-dioxan-2-yl)methoxy)phenyl)-2-oxo-6-(trifluoromethyl)-1,2-dihydropyridine-3-carboxamide] | 4.30 to 4.60 |  |
| Cn1ncc2c1COCC2COc1ccc(-c2cc(C(N)=O)c(=O)[nH]c2C(F)(F)F)cc1 (single isomer, unassigned) [Example 289, 5-(4-((1-methyl-1,4,5,7-tetrahydropyrano[3,4-c]pyrazol-4-yl)methoxy)phenyl)-2-oxo-6-(trifluoromethyl)-1,2-dihydropyridine-3-carboxamide] | 5.00 to 5.30 |  |
| Cn1ncc2c1COCC2COc1ccc(-c2cc(C(N)=O)c(=O)[nH]c2C(F)(F)F)cc1 (single isomer, unassigned) [Example 290, 5-(4-((1-methyl-1,4,5,7-tetrahydropyrano[3,4-c]pyrazol-4-yl)methoxy)phenyl)-2-oxo-6-(trifluoromethyl)-1,2-dihydropyridine-3-carboxamide] | 5.00 to 5.30 |  |
| CC(C)n1ncc2c1COCC2COc1ccc(-c2cc(C(N)=O)c(=O)[nH]c2C(F)(F)F)cc1 (single isomer, unassigned) [Example 293, 5-(4-((1-isopropyl-1,4,5,7-tetrahydropyrano[3,4-c]pyrazol-4-yl)methoxy)phenyl)-2-oxo-6-(trifluoromethyl)-1,2-dihydropyridine-3-carboxamide] | 5.00 to 5.30 |  |
| CC(C)n1ncc2c1COCC2COc1ccc(-c2cc(C(N)=O)c(=O)[nH]c2C(F)(F)F)cc1 (single isomer, unassigned) [Example 294, 5-(4-((1-isopropyl-1,4,5,7-tetrahydropyrano[3,4-c]pyrazol-4-yl)methoxy)phenyl)-2-oxo-6-(trifluoromethyl)-1,2-dihydropyridine-3-carboxamide] | 5.00 to 5.30 |  |
| CC(C)n1cc2c(n1)COCC2COc1ccc(-c2cc(C(N)=O)c(=O)[nH]c2C(F)(F)F)cc1 (single isomer, unassigned) [Example 295, 5-(4-((2-isopropyl-2,4,5,7-tetrahydropyrano[3,4-c]pyrazol-4-yl)methoxy)phenyl)-2-oxo-6-(trifluoromethyl)-1,2-dihydropyridine-3-carboxamide] | 5.00 to 5.30 |  |
| CC(C)n1cc2c(n1)COCC2COc1ccc(-c2cc(C(N)=O)c(=O)[nH]c2C(F)(F)F)cc1 (single isomer, unassigned) [Example 296, 5-(4-((2-isopropyl-2,4,5,7-tetrahydropyrano[3,4-c]pyrazol-4-yl)methoxy)phenyl)-2-oxo-6-(trifluoromethyl)-1,2-dihydropyridine-3-carboxamide] | 5.00 to 5.30 |  |
| NC(=O)c1cc(-c2ccc(OCC3C[C@@H]4CC[C@H]3O4)cc2)c(C(F)(F)F)[nH]c1=O (single isomer, unassigned) [Example 312, 5-(4-((7-oxabicyclo[2.2.1]heptan-2-yl)methoxy)phenyl)-2-oxo-6-(trifluoromethyl)-1,2-dihydropyridine-3-carboxamide] | 5.00 to 5.30 |  |
| NC(=O)c1cc(-c2ccc(OCC3C[C@@H]4CC[C@H]3O4)cc2)c(C(F)(F)F)[nH]c1=O (single isomer, unassigned) [Example 313, 5-(4-((7-oxabicyclo[2.2.1]heptan-2-yl)methoxy)phenyl)-2-oxo-6-(trifluoromethyl)-1,2-dihydropyridine-3-carboxamide] | 4.60 to 5.00 |  |
| NC(=O)c1cc(-c2ccc(OCC3C[C@@H]4CC[C@H]3O4)cc2)c(C(F)(F)F)[nH]c1=O (single isomer, unassigned) [Example 314, 5-(4-((7-oxabicyclo[2.2.1]heptan-2-yl)methoxy)phenyl)-2-oxo-6-(trifluoromethyl)-1,2-dihydropyridine-3-carboxamide] | 4.60 to 5.00 |  |
| NC(=O)c1cc(-c2ccc(OCC3C[C@@H]4CC[C@H]3O4)cc2)c(C(F)(F)F)[nH]c1=O (single isomer, unassigned) [Example 315, 5-(4-((7-oxabicyclo[2.2.1]heptan-2-yl)methoxy)phenyl)-2-oxo-6-(trifluoromethyl)-1,2-dihydropyridine-3-carboxamide] | 4.60 to 5.00 |  |
| NC(=O)c1cc(-c2ccc(OCC3OCC4CCC3O4)cc2)c(C(F)(F)F)[nH]c1=O (single isomer, unassigned) [Example 317, 5-(4-((3,8-dioxabicyclo[3.2.1]octan-2-yl)methoxy)phenyl)-2-oxo-6-(trifluoromethyl)-1,2-dihydropyridine-3-carboxamide] |  | 5.00 to 5.30 |
| NC(=O)c1cc(-c2ccc(OCC3OCC4CCC3O4)cc2)c(C(F)(F)F)[nH]c1=O (single isomer, unassigned) [Example 318, 5-(4-((3,8-dioxabicyclo[3.2.1]octan-2-yl)methoxy)phenyl)-2-oxo-6-(trifluoromethyl)-1,2-dihydropyridine-3-carboxamide] | 5.00 to 5.30 |  |
| NC(=O)c1cc(-c2ccc(OCC3OCC4CCC3O4)cc2)c(C(F)(F)F)[nH]c1=O (single isomer, unassigned) [Example 319, 5-(4-((3,8-dioxabicyclo[3.2.1]octan-2-yl)methoxy)phenyl)-2-oxo-6-(trifluoromethyl)-1,2-dihydropyridine-3-carboxamide] | 5.00 to 5.30 |  |
| CC1COC(COc2ccc(-c3cc(C(N)=O)c(=O)[nH]c3C(F)(F)F)cc2)CO1 (single isomer, unassigned) [Example 322, 5-(4-((5-methyl-1,4-dioxan-2-yl)methoxy)phenyl)-2-oxo-6-(trifluoromethyl)-1,2-dihydropyridine-3-carboxamide] | 4.30 to 4.60 |  |
| CC1COC(COc2ccc(-c3cc(C(N)=O)c(=O)[nH]c3C(F)(F)F)cc2)CO1 (single isomer, unassigned) [Example 323, 5-(4-((5-methyl-1,4-dioxan-2-yl)methoxy)phenyl)-2-oxo-6-(trifluoromethyl)-1,2-dihydropyridine-3-carboxamide] | 4.60 to 5.00 |  |
| NC(=O)c1cc(-c2ccc(OCC3COCC4(CC4)O3)cc2)c(C(F)(F)F)[nH]c1=O (single isomer, unassigned) [Example 335, (4-(4,7-dioxaspiro[2.5]octan-5-ylmethoxy)phenyl)-2-oxo-6-(trifluoromethyl)-1,2-dihydropyridine-3-carboxamide] | 5.00 to 5.30 |  |
